Laboratory results published in US20160369307A1, “METHOD OF INCREASING BIOMASS AND LIPID CONTENT IN A MICRO-ORGANISM AND A GENETICALLY MODIFIED MICRO-ORGANISM EXHIBITING ENHANCED AUTOPHAGY” (RELIANCE INDUSTRIES LIMITED, priority 2014, published 2016).
Where a SMILES comes first, the peptide text is derived from it. The star is where a group is joined. Cbz = O=C(OCc1ccccc1)*; CH2F = FC*

Legend:
[1] = test system: Chlorella sorokiniana; test: Recovery of Chlorella sorokiniana cultures after UV exposure with z-vad-fmk; assay type: cell-based
Procedure: 1×10^6 cells/ml of Chlorella sorokiniana were grown for three days in Tris-Acetate-Phosphate (TAP) medium and then exposed to UV at 250000 μJ/cm^2 for one minute using CL-1000 UV crosslinker. Immediately after UV exposure, 25 μM Z-vad-fmk was added to the TAP medium. The cultures were kept in the dark for 24 hours. Cultures were then exposed to light of 2000 lux for 12 hours followed by 12 hours of darkness.
FIG. 1B graphically represents the optical density at 750 nm of the Control cultures versus the optical density of the cultures treated with z-vad-fmk on the 13th day after UV exposure. From these figures it is clear that z-vad-fmk induced autophagy in the Chlorella sorokiniana cells helping the cells to recover from UV exposure. […] Thus, it can be concluded that even in environmental stress conditions like exposure to UV, treatment of the algal cells with z-vad-fmk prevents cell death, increases the biomass and lipid content of the algal cells, and concomitantly yields an increased amount of commercially valuable products like oils which are known to be produced by the algal cells.

[2] = test system: Chlorella sorokiniana; test: Cell count of Chlorella sorokiniana under salinity stress with LiCl; assay type: cell-based; settings: for Cell Density at Day 0: Day 0, day of salinity exposure (baseline); for Cell Density at Day 4: Day 4 of salinity stress
Procedure: 5mM LiCl was added to the TAP medium in the Experimental plates, but not in the Control. […]
Thus, it can be concluded that even in environmental stress conditions like exposure to salinity, treatment of the algal cells with LiCl prevents cll death, increases the biomass and lipid content of the algal cells, and concomitantly yields an increased amount of commercially valuable products like oils which are known to be produced by the algal cells.

[3] = TAP + 0.6% Salinity + 5 mM LiCl
[4] = TAP + 1.2% Salinity + 5 mM LiCl

SMILES | Revival of bleached cultures after UV exposure ([1]; 25 μM added to TAP medium immediately after UV 250000 μJ/cm^2 for one minute, 10 days) | Culture viability (plates, FIG. 1A) after UV exposure ([1]; 25 μM, 13 days after UV exposure, versus Control plates) | Cell counts versus Control after salinity stress (FIG. 2) ([2]; 5 mM LiCl, after 4 days of salinity stress exposure) | Cell Density at Day 0 [2, 3] | Cell Density at Day 4 [2, 3] | Cell Density at Day 0 [2, 4] | Cell Density at Day 4 [2, 4]
COC(=O)C[C@H](NC(=O)[C@H](C)NC(=O)[C@@H](NC(=O)OCc1ccccc1)C(C)C)C(=O)CF [z-vad-fmk] (Cbz-Val-Ala-Asp(OMe)-CH2F) | only z-vad-fmk treated cultures were seen to revive after 10 days | only the z-vad-fmk treated plates show viable cultures | – | – | – | – | –
[Cl-].[Li+] [LiCl] | – | – | higher cell counts | 2.6 × 10^6 cells/ml | 6.57 × 10^6 cells/ml | 2.6 × 10^6 cells/ml | 7.22 × 10^6 cells/ml
